Results as given in PMC11487536 (ACS Pharmacology & Translational Science, 2024).
Values joined by “and” are separate entries in the source; they are usually repeats but may differ in a detail not shown here. Equal entries are not always repeated.

How the values were obtained:
[1] = target: T1, sensing domain of P. fluorescens CtaA (Pseudomonas fluorescens, UniProt Q3K7T6); assay: Thermal shift assay; type: binding; details: for Midpoint Transition Temperature in Presence of Ligand, Tm: 5 μM CtaA, ligand 20 μM, pH 5.5
T1 sequence (Q3K7T6 30-277): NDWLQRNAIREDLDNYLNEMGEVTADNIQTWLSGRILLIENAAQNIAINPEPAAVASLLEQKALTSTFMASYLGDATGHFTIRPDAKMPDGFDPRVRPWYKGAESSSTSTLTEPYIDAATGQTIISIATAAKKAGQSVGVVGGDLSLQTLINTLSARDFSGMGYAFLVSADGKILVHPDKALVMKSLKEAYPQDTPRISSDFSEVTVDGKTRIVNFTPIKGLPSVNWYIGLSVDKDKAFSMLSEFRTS

[2] = target: T2, sensing domain of C. jejuni Tlp3 (Campylobacter jejuni, UniProt Q0P864); assay: Thermal shift assay; type: binding; details: for Midpoint Transition Temperature in Presence of Ligand, Tm: 10 μM Tlp3, ligand 3 mM (L-valine 10 mM), pH 8.0
T2 sequence (Q0P864 41-290): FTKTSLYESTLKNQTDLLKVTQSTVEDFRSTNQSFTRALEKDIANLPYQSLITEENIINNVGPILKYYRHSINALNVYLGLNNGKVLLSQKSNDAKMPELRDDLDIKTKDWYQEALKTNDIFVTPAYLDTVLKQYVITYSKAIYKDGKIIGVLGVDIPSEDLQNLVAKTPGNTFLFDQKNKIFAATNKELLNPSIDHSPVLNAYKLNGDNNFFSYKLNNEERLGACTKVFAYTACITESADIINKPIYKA

TlpC = target: T3, TlpC (Helicobacter pylori, UniProt O24911); details: 25 °C; cited from earlier work
T3 sequence (O24911 32-299): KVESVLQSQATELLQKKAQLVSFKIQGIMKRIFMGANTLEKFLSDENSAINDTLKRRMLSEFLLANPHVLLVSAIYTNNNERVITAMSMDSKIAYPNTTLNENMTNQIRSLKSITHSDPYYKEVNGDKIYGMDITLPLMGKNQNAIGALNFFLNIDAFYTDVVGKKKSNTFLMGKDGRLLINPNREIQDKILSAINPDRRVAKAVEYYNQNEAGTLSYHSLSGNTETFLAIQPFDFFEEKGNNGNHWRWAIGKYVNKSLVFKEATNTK

Compound | Kd [1] | Midpoint Transition Temperature in Presence of Ligand, Tm [1] [°C] | Midpoint Transition Temperature in Presence of Ligand, Tm [2] [°C] | Kd [2] | ΔHL(T) from ITC (enthalpy of ligand binding) (TlpC)
C[C@H](N)C(=O)O [L-Alanine, L-alanine] | 4.6 µM and 3.2 µM | 56.1 ± 0.1 | – | – | –
C[C@H](O)C(=O)O [L-Lactate, L-lactate] | – | – | – | – | –21.32 kcal mol^–1
CCC[C@H](N)C(=O)O [L-Norvaline, L-norvaline] | – | – | 63.7 ± 0.3 | – | –
N[C@@H](CO)C(=O)O [L-Serine, L-serine] | 9 µM and 4 µM | 55.1 ± 0.3 | – | – | –

Further lines, with some results ahead:

Kd [1] | Midpoint Transition Temperature in Presence of Ligand, Tm [1] [°C] | Midpoint Transition Temperature in Presence of Ligand, Tm [2] [°C] | Kd [2] | Compound | ΔHL(T) from ITC (enthalpy of ligand binding) (TlpC)
– | – | 64.5 ± 0.3 | – | CC[C@H](C)[C@H](N)C(=O)O [L-Isoleucine, L-isoleucine] | –
5 ± 1 µM | 54.7 ± 0.3 | 64.2 ± 0.2 | 222 µM and 90 µM and 116 µM | CC(C)C[C@H](N)C(=O)O [L-Leucine, L-leucine] | –
1.5 µM and 1.2 µM | 57.6 ± 0.2 | 64.6 ± 0.3 | 578 µM and 240 µM and 316 µM | CC(C)[C@H](N)C(=O)O [L-Valine, L-valine] | –
